The values that follow come from patent US12324769B1, “Double-network versatile hydrogel with antibacterial and drug sequential release capabilities” (Eye Institute of Shandong First Medical University, priority 2023, dated 2025).

Data set [1] in a line: cumulative release of PDRN and verteporfin in PBS at 37° C. It counts as physicochemical. As to conditions: from SQPV hydrogel.
The test system of the next data set is Raw264.7 cells. As to the kind of experiment: macrophage cytoskeleton staining after LPS/IFN-γ induced M1 polarization. In kind it is cell-based. The note with it: M1-induced Raw264.7, cytoskeleton staining. How it is done:
The anti-inflammatory properties of SQPV hydrogel prepared in Embodiment 1, SQP hydrogel prepared in Comparative embodiment 1 and SQ hydrogel prepared in Comparative embodiment 2 are investigated. […] Therefore, regulating inflammatory response has become the key focus of developing ideal corneal substitutes. […] In this present disclosure, Raw264.7 cells are inoculated on a 6-well plate for 24 h, and then stimulated with LPS (100 nanograms per milliliter (ng/mL)) and interferon gamma (IFN-γ) (20 ng/mL) for 24 h to induce M1 polarization. Then, fresh hydrogel leaching solution is added, and after 24 h, the cytoskeleton is stained with CLSM to observe the morphological changes of macrophages.

Turning to polydeoxyribonucleotide [PDRN], in data set [1], the “time until almost all encapsulated PDRN is released” value is listed as at most 7 days. For the same substance, the macrophage polarization entry with Raw264.7 cells is listed as “promotes macrophages to have M1 to M2 transformation”.
Consider verteporfin [reference compound], for which the “cumulative release of verteporfin” value in data set [1] (after 28 days of incubation) turned out to be 72%.
